Here are results for 1 molecule from patent publication US5112992A, “Production of polycarboxylic acids with hafnium-activated cobalt catalyst” (Amoco Corporation, priority 1991, dated 1992).

Molecules are shown by their SMILES.

Data set [1] in a line: Metal remaining soluble in filtrate (pyromellitic acid) after durene oxidation.
A short description of data set [2]: Solubility of hafnium and zirconium tetrabromides in acetic acid-water mixtures in presence of trimellitic acid.
Description: Solubility of hafnium compounds, i.e., hafnium bromide, was determined in acetic acid-water mixtures in the presence of trimellitic acid and pyromellitic acid. Hafnium tetrabromide, 0.0012M, was heated in a 20% water-acetic acid solution to reflux. Trimellitic acid (0.71M) was added.

With `[Br][Hf]([Br])([Br])[Br]` [Hafnium tetrabromide], the metal remained soluble in data set [1] (Example V: durene oxidation reactor effluent cooled to room temperature and filtered) was found to be 36%. Besides, the “% Soluble” value in data set [1] (Metal in filtrate after durene oxidation) is 32%; in data set [2] (Metal + trimellitic acid in 20% H2O-HOAc at 25° C., solution cooled and solids filtered off, molar basis), 36%; in data set [2] (Metal + trimellitic acid in 20% H2O-HOAc at 100° C.) it was 100%. Besides, the “Appearance of solution after adding trimellitic acid” value in data set [2] (0.0012M tetrabromide in 20% water-acetic acid at reflux, trimellitic acid 0.71M added) is given as “remained clear”.
